Consider 86 compounds from patent US12624026B2, “Inhibitors of SARM1” (Disarm Therapeutics, Inc., priority 2018, dated 2026).
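Further: inhibition of SARM1 SAM-TIR NADase activity, i.e. NAD+ cleavage, using lysate of NRK1-HEK293T cells overexpressing the SAM-TIR fragment.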

The assay has as its target T1, SARM1 SAM-TIR (Homo sapiens, UniProt Q6SZW1).
T1 construct: a fragment of the SARM1 molecule encompassing the SAM and TIR domains; made in house; host or cells: NRK1-HEK293T cells, transiently transfected; the cleared, unpurified lysate was used as the enzyme
T1 sequence (Q6SZW1 409-724 limits assumed): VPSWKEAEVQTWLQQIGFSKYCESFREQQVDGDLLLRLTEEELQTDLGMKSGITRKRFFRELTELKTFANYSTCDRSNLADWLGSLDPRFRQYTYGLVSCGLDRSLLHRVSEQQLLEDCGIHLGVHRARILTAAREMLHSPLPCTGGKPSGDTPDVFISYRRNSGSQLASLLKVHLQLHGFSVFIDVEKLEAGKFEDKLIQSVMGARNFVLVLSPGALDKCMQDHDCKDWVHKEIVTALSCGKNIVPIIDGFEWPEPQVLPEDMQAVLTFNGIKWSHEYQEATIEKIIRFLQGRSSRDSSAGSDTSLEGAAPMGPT
The experiment in a line: biochemical. As to conditions: SAM-TIR lysate 5 μg/mL, 2 h pre-incubation, 5 μM NAD+, RapidFire MS of NAD+ and ADPR; read-out: SARM1 IC50.
Broadly, the IC50 is the concentration needed to halve the response being measured. As for `N#Cc1c(O)nsc1Nc1ccccc1` [Example 1], the half-maximal inhibitory concentration (IC50) was 1 to 5 µM.

In the case of `N#Cc1c(O)nsc1Nc1ccccc1Cl` [Example 2], the half-inhibitory concentration (IC50) is below 1 µM.

`Cc1ccc(Nc2snc(O)c2C#N)cc1` [Example 3]: the half-inhibitory concentration (IC50) was 1 to 5 µM.

As to `CC(C)c1ccc(Nc2snc(O)c2C#N)cc1` [Example 4], the concentration for half-maximal inhibition (IC50) is above 5 µM.

As to `N#Cc1c(O)nsc1Nc1ccc(Cl)cc1` [Example 5], the IC50 fell in the range of 1 to 5 µM.

Take `N#Cc1c(O)nsc1Nc1ccc(Cl)c(Cl)c1` [Example 8]: the half-inhibitory concentration (IC50) was in the range of 1 to 5 µM.

Turning to `N#Cc1c(O)nsc1Nc1ccc(Cl)cc1Cl` [Example 9], the 50% inhibitory concentration (IC50) was below 1 µM.

For `N#Cc1c(O)nsc1Nc1cc(Cl)cc(Cl)c1` [Example 10], the IC50 was in the range of 1 to 5 µM.

With `N#Cc1c(O)nsc1Nc1ccccc1F` [Example 11], the IC50 is 1 to 5 µM.

With `N#Cc1c(O)nsc1Nc1ccc(C(F)(F)F)cc1` [Example 13], the IC50 was 1 to 5 µM.

As to `COc1ccccc1Nc1snc(O)c1C#N` [Example 14], the IC50 fell in the range of 1 to 5 µM.

On to `N#Cc1c(O)nsc1Nc1ccccc1OC(F)(F)F` [Example 15], for which the half-inhibitory concentration (IC50) is below 1 µM.

Consider `N#Cc1c(O)nsc1Nc1c(Cl)cccc1Cl` [Example 16], for which the IC50 is below 1 µM.

In the case of `N#Cc1c(O)nsc1Nc1cccc(Cl)c1Cl` [Example 17], the IC50 is below 1 µM.

For the compound `NC(=O)c1c(O)nsc1Nc1cccc(Cl)c1Cl` [Example 18], the 50% inhibitory concentration (IC50) fell in the range of 1 to 5 µM.

As for `N#Cc1c(O)nsc1Nc1cc(Cl)ccc1Cl` [Example 19], the concentration for half-maximal inhibition (IC50) was below 1 µM.

For the compound `N#Cc1c(O)nsc1Nc1cccnc1` [Example 20], the IC50 was above 5 µM.

For `NC(=O)c1c(O)nsc1Nc1ccccc1OC(F)(F)F` [Example 21], the 50% inhibitory concentration (IC50) lay in the range of 1 to 5 µM.

For `Cc1cccc(C)c1Nc1snc(O)c1C#N` [Example 22], the concentration for half-maximal inhibition (IC50) lay in the range of 1 to 5 µM.

Regarding `CSc1ccccc1Nc1snc(O)c1C#N` [Example 23], the 50% inhibitory concentration (IC50) was below 1 µM.

For the compound `N#Cc1c(O)nsc1NCc1ccccc1` [Example 24], the concentration for half-maximal inhibition (IC50) is above 5 µM.

With `CS(=O)(=O)c1ccccc1Nc1snc(O)c1C#N` [Example 25], the IC50 is below 1 µM.

`N#Cc1c(O)nsc1Nc1cccc2ccccc12` [Example 26]: the IC50 is below 1 µM.

For the compound `N#Cc1c(O)nsc1Nc1ccc2ccccc2c1` [Example 28], the IC50 was 1 to 5 µM.

Turning to `N#Cc1c(O)nsc1Nc1ccc2cccnc2c1` [Example 29], the concentration for half-maximal inhibition (IC50) is 1 to 5 µM.

Turning to `CN(c1ccccc1C(F)(F)F)c1snc(O)c1C#N` [Example 30], the IC50 is above 5 µM.

Regarding `Cn1sc(Nc2ccccc2Cl)c(C#N)c1=O` [Example 32], the half-inhibitory concentration (IC50) is below 1 µM.

With `CN(C)CCn1sc(Nc2ccccc2C(F)(F)F)c(C#N)c1=O` [Example 33], the half-inhibitory concentration (IC50) is below 1 µM.

Regarding `N#Cc1c(Nc2cccc(Cl)c2Cl)sn(CCO)c1=O` [Example 34], the concentration for half-maximal inhibition (IC50) was below 1 µM.

Consider `COc1cccc(Cl)c1Nc1sn(C)c(=O)c1C#N` [Example 35], for which the IC50 is below 1 µM.

Turning to `N#Cc1c(Nc2ccccc2C(F)(F)F)sn(CCC(N)=O)c1=O` [Example 36], the IC50 is below 1 µM.

For `Cn1sc(Nc2cccc(Cl)c2Cl)c(C#N)c1=O` [Example 37], the concentration for half-maximal inhibition (IC50) was below 1 µM.

For `N#Cc1c(Nc2ccccc2C(F)(F)F)sn(CC(N)=O)c1=O` [Example 38], the concentration for half-maximal inhibition (IC50) was below 1 µM.

Turning to `N#Cc1c(Nc2ccccc2C(F)(F)F)sn(CCO)c1=O` [Example 39], the IC50 was below 1 µM.

`Cn1sc(Nc2c(Cl)ccc3c2CCO3)c(C#N)c1=O` [Example 40]: the IC50 is below 1 µM.

On to `Cn1sc(Nc2ccc(Cl)c3c2CCO3)c(C#N)c1=O` [Example 41], for which the half-maximal inhibitory concentration (IC50) was below 1 µM.

Turning to `Cc1ccc2c(Nc3sn(C)c(=O)c3C#N)c(Cl)ccc2n1` [Example 42], the IC50 was below 1 µM.

As to `CC(O)Cn1sc(Nc2ccccc2C(F)(F)F)c(C#N)c1=O` (centres unmarked) [Example 43], the IC50 was below 1 µM.

With `C[C@@H](CO)n1sc(Nc2ccccc2C(F)(F)F)c(C#N)c1=O` [Example 44], the concentration for half-maximal inhibition (IC50) is below 1 µM.

For the compound `Cn1sc(Nc2c(F)cccc2Cl)c(C#N)c1=O` [Example 45], the IC50 is below 1 µM.

As to `Cn1sc(Nc2c(Cl)cccc2Cl)c(C#N)c1=O` [Example 46], the 50% inhibitory concentration (IC50) was below 1 µM.

Turning to `C[C@H](CO)n1sc(Nc2ccccc2C(F)(F)F)c(C#N)c1=O` [Example 47], the IC50 is below 1 µM.

For `Cn1sc(Nc2c(Cl)ccc3c2cnn3C)c(C#N)c1=O` [Example 48], the IC50 was below 1 µM.

On to `N#Cc1c(Nc2cccc(Br)c2C(F)(F)F)s[nH]c1=O` [Example 49], for which the 50% inhibitory concentration (IC50) was below 1 µM.

Take `Cn1sc(Nc2c(Br)ccc3ncccc23)c(C#N)c1=O` [Example 50]: the IC50 was below 1 µM.

Turning to `COCCn1sc(Nc2ccccc2C(F)(F)F)c(C#N)c1=O` [Example 51], the 50% inhibitory concentration (IC50) is below 1 µM.

For the compound `Cn1sc(Nc2c(Cl)ccc3ncccc23)c(C#N)c1=O` [Example 52], the IC50 was below 1 µM.

Regarding `Cn1sc(Nc2cccc3ncccc23)c(C#N)c1=O` [Example 53], the half-maximal inhibitory concentration (IC50) is below 1 µM.

`C[C@@H](c1ccccc1)n1sc(Nc2cccc(Cl)c2Cl)c(C#N)c1=O` [Example 54]: the 50% inhibitory concentration (IC50) was below 1 µM.

Turning to `CS(=O)(=O)CCn1sc(Nc2ccccc2C(F)(F)F)c(C#N)c1=O` [Example 55], the concentration for half-maximal inhibition (IC50) is below 1 µM.

With `Cn1ccc(Cn2sc(Nc3ccccc3C(F)(F)F)c(C#N)c2=O)n1` [Example 56], the IC50 is below 1 µM.

Turning to `COCCn1sc(Nc2c(OC)cccc2C(F)(F)F)c(C#N)c1=O` [Example 57], the IC50 is below 1 µM.

As to `COCCn1sc(Nc2cccc(Cl)c2Cl)c(C#N)c1=O` [Example 58], the IC50 was below 1 µM.

As for `COC[C@H](C)n1sc(Nc2ccccc2C(F)(F)F)c(C#N)c1=O` [Example 59], the concentration for half-maximal inhibition (IC50) is below 1 µM.

As to `N#Cc1c(Nc2ccccc2C(F)(F)F)sn(C[C@@H]2CCOC2)c1=O` [Example 60], the IC50 was below 1 µM.

As for `N#Cc1c(Nc2ccccc2C(F)(F)F)sn(CC2(O)CC2)c1=O` [Example 61], the concentration for half-maximal inhibition (IC50) is below 1 µM.

On to `N#Cc1c(Nc2ccccc2C(F)(F)F)sn(Cc2ccccn2)c1=O` [Example 62], for which the IC50 is below 1 µM.

As to `N#Cc1c(Nc2ccccc2C(F)(F)F)sn(C[C@H]2CCOC2)c1=O` [Example 63], the IC50 is below 1 µM.

`CC(C)(O)Cn1sc(Nc2ccccc2C(F)(F)F)c(C#N)c1=O` [Example 64]: the half-inhibitory concentration (IC50) was below 1 µM.

Turning to `CCn1sc(Nc2ccccc2C(F)(F)F)c(C#N)c1=O` [Example 65], the IC50 was below 1 µM.

Take `Cn1sc(Nc2c(Cl)ccc3c2CCCO3)c(C#N)c1=O` [Example 66]: the half-inhibitory concentration (IC50) is below 1 µM.

Regarding `CC(C)(O)Cn1sc(Nc2c(F)cccc2Cl)c(C#N)c1=O` [Example 67], the concentration for half-maximal inhibition (IC50) was below 1 µM.

Turning to `N#Cc1c(Nc2c(Cl)cccc2Cl)sn(CCO)c1=O` [Example 68], the IC50 is below 1 µM.

On to `Cn1sc(Nc2ccc(Cl)c3c2cnn3C)c(C#N)c1=O` [Example 69], for which the 50% inhibitory concentration (IC50) is below 1 µM.

As for `COCCn1sc(Nc2ccc(Cl)cc2C(F)(F)F)c(C#N)c1=O` [Example 70], the half-maximal inhibitory concentration (IC50) was below 1 µM.

For the compound `COCCCn1sc(Nc2ccccc2C(F)(F)F)c(C#N)c1=O` [Example 71], the half-inhibitory concentration (IC50) is below 1 µM.

On to `Cn1sc(Nc2c(Cl)ccc3c2CCN3)c(C#N)c1=O` [Example 72], for which the IC50 was below 1 µM.

For `COCCn1sc(Nc2c(Cl)cccc2Cl)c(C#N)c1=O` [Example 73], the IC50 was below 1 µM.

For the compound `COCC(C)n1sc(Nc2ccccc2C(F)(F)F)c(C#N)c1=O` (centres unmarked) [Example 74], the half-maximal inhibitory concentration (IC50) was below 1 µM.

Consider `Cn1sc(Nc2cccc3c2CCCO3)c(C#N)c1=O` [Example 75], for which the 50% inhibitory concentration (IC50) was below 1 µM.

As to `N#Cc1c(Nc2ccccc2C(F)(F)F)sn(CC2CCCO2)c1=O` (centres unmarked) [Example 76], the IC50 is below 1 µM.

Consider `Cn1sc(Nc2c(Cl)ccc3c2CCCN3)c(C#N)c1=O` [Example 77], for which the IC50 was below 1 µM.

With `N#Cc1c(Nc2ccccc2C(F)(F)F)sn(CCC(=O)N2CCC(N3CCC3)CC2)c1=O` [Example 78], the IC50 is below 1 µM.

On to `N#Cc1c(Nc2c(Cl)cccc2Cl)sn(CCC(N)=O)c1=O` [Example 79], for which the half-inhibitory concentration (IC50) is below 1 µM.

`N#Cc1c(Nc2ccccc2C(F)(F)F)sn(Cc2ccccc2)c1=O` [Example 80]: the IC50 was below 1 µM.

In the case of `Cc1ccc2ncccc2c1Nc1sn(C)c(=O)c1C#N` [Example 81], the IC50 is below 1 µM.

`COc1ccc2nc(C)ccc2c1Nc1sn(C)c(=O)c1C#N` [Example 82]: the IC50 is below 1 µM.

In the case of `N#Cc1c(Nc2ccccc2C(F)(F)F)sn(CCc2ccccc2)c1=O` [Example 83], the IC50 is below 1 µM.

For the compound `COc1ccc2ncccc2c1Nc1sn(C)c(=O)c1C#N` [Example 84], the IC50 is below 1 µM.

With `Cn1sc(Nc2ccc(Cl)c3c2CCCO3)c(C#N)c1=O` [Example 85], the concentration for half-maximal inhibition (IC50) is below 1 µM.

`COCCn1sc(Nc2c(Cl)ccc3ncccc23)c(C#N)c1=O` [Example 86]: the IC50 was below 1 µM.

With `CCCn1sc(Nc2ccccc2C(F)(F)F)c(C#N)c1=O` [Example 87], the 50% inhibitory concentration (IC50) is below 1 µM.

Consider `COc1ccc(Cn2sc(Nc3ccccc3)c(C#N)c2=O)cc1` [Example 88], for which the 50% inhibitory concentration (IC50) was below 1 µM.

`C[C@H](c1ccccc1)n1sc(Nc2ccccc2C(F)(F)F)c(C#N)c1=O` [Example 89]: the concentration for half-maximal inhibition (IC50) is below 1 µM.

For the compound `COCCn1sc(Nc2c(Cl)cccc2C(F)(F)F)c(C#N)c1=O` [Example 90], the IC50 is below 1 µM.

On to `Cc1ccc2c(Nc3sn(C)c(=O)c3C#N)cccc2n1` [Example 91], for which the half-maximal inhibitory concentration (IC50) was below 1 µM.
